Results as given in patent publication US11155537B2, “Crystal of benzofuran derivative free base and preparation method” (Jiangsu Hengrui Medicine Co., Ltd., priority 2017, dated 2021).

Key:
[1] = Long-term, accelerated stability of crystal forms B and D (XRPD); format: physicochemical; settings: Day 20; for change of XRPD peaks / crystal form stability: spread flat in the air
Protocol: 2. X-ray Powder Diffraction, XRPD
Instrument type: BRUKER D8 Discover A25 X-ray powder diffractometer
Ray: monochromatic Cu—Kα ray (λ=1.5406 Å)
Scanning mode: θ/2,θ Scanning range: 10-48°
Voltage: 40 kV, Electric current: 40 mA
The sample of crystal form B was spread flat in the air to test sample stability under conditions of 25° C.-65% relative humidity (RH), and the sampling time was Day 20. The sample of crystal form D was spread flat in the air to test sample stability under conditions of 40° C.-75% RH and 25° C.-65% RH, and the sampling time was Day 20.

[2] = Dynamic Vapour Sorption (DVS) hygroscopicity; format: physicochemical; settings: 25° C., water, humidity change 0-95-0-95-0% RH; FIGS. 8 and 9
Protocol: 3. Dynamic Vapour Sorption, DVS
Instrument type: DVS advantage
The crude product N-((4,6-dimethyl-2-oxo-1,2-dihydropyridin-3 -yl)methyl)-5 -ethyl-6-(ethyl(tetrahydro-2 H-pyran-4-yl)amino)-2-(piperidin-1-ylmethyl)benzofuran-4-carboxamide (50 mg, 0.091 mmol) obtained in Comparative example 1 was added to a reaction flask, and methanol (100 μL) was added. The solution was stirred at 25° C. for five days, filtrated and dried under vacuum to obtain a white to pale yellow powder. The DSC spectrum is shown in FIG. 7, in which the onset melting temperature is about 205.45° C.

physical stability compared between crystal forms ([1]; 25° C.-65%RH)	change of XRPD peaks / crystal form stability ([1]; 40° C.-75% RH)	hygroscopicity (DVS diagrams) [2]	change of XRPD peaks / crystal form stability ([1]; 25° C.-65% RH)	SMILES
better than that of crystal form B	has not changed substantially	no obvious hygroscopicity	–	CCc1c(N(CC)C2CCOCC2)cc2oc(CN3CCCCC3)cc2c1C(=O)NCc1c(C)cc(C)[nH]c1=O [crystal form D, N-((4,6-dimethyl-2-oxo-1,2-dihydropyridin-3-yl)methyl)-5-ethyl-6-(ethyl(tetrahydro-2 H-pyran-4-yl)amino)-2-(piperidin-1-ylmethyl)benzofuran-4-carboxamide]
–	–	–	has changed significantly	CCc1c(N(CC)C2CCOCC2)cc2oc(CN3CCCCC3)cc2c1C(=O)NCc1c(C)cc(C)[nH]c1=O [crystal form B, N-((4,6-dimethyl-2-oxo-1,2-dihydropyridin-3-yl)methyl)-5-ethyl-6-(ethyl(tetrahydro-2 H-pyran-4-yl)amino)-2-(piperidin-1-ylmethyl)benzofuran-4-carboxamide]
